Reference: the NIST ThermoML archive (doi:10.1016/j.fluid.2016.02.028)
± gives the expanded uncertainty stated by the source.

settings: 298.15 K; 101.33 kPa; Liquid; Vibrating tube method

Q: For `c1ccccc1` [benzene], which mass density is on record?
A: 873.71 ± 2 kg/m3

Q: For `CCCCCCCCCC` [decane], which mass density is on record?
A: 726.15 ± 2 kg/m3

Q: For `CCCCCCCC` [octane], which mass density is on record?
A: 698.86 ± 2 kg/m3

Q: For `CCCC[N+](C)(CCCC)CCCC.O=S(=O)([N-]S(=O)(=O)C(F)(F)F)C(F)(F)F` [tributylmethylammonium bis((trifluoromethyl)sulfonyl)imide], which mass density is on record?
A: 1261.65 ± 6 kg/m3
